The text below walks through data of article PMC8393326, “A Thermodynamic Analysis of the Binding Specificity between Four Human PDZ Domains and Eight Host, Viral and Designed Ligands” (Biomolecules, 2021).

Where two headings read alike, the source gives them in different places. Where no end group is shown, it is not given here.

In assay [1] the target is Erbin-PDZ. The conditions noted are these: ERBB2 C-terminal tail of 9 residues; cited from earlier work. An excerpt:
Again, no class II or III peptides were able to bind PSD95-PDZ3 either. […] Instead, the striking resu ...

The target in assay [2] is T1, PSD95-PDZ2 (Homo sapiens, UniProt P78352).
T1 construct: PSD95-PDZ2 (residues 155–249, according to PSD95 numbering); made in house; host or cells: Escherichia coli BL21-DE3
Put plainly: ITC titration of PSD95-PDZ2 with peptides. It is filed as binding. The conditions noted are these: for Kd: ITC, 25 °C, 50 mM potassium phosphate pH 7.5, protein 70 μM in cell, peptide 900 μM, single-site model, n 0.8 to 1.1; for interaction or not with PSD95 PDZ2: Figure 1 summary, ITC, and DSC where ITC showed no binding. More on the design: key to interaction or not with PSD95 PDZ2: The tick (✓) and the cross (✕) signs mean whether there is interaction or not, respectively, as demonstrated in this study; The tick (✓) and the cross (✕) signs mean whether there is interaction or not, respectively, as demonstrated in this study. The procedure: (§1) The DNA encoding the sequences of PSD95-PDZ2 (residues 155–249, according to PSD95 numbering), PSD95-PDZ3 (residues 302–415, according to PSD95 numbering), nNOS-PDZ (residues 1–127, in nNOS numbering) and Erbin-PDZ (given generously by Prof. Sachdev Sidhu, University of Toronto, Toronto, ON, Canada), were sub-cloned into pBAT4 vector (EMBL Core Purification Facility, Heidelberg, Germany) and expressed in Escherichia coli BL21-DE3 cells. Protein purification was carried out as previously described. Briefly, cultures were over-expressed overnight and centrifuged. After cell lysis with a French press, the lysates were centrifuged and the pH of the supernatant was lowered down to a pH of 3 with diluted HCl. Upon centrifugation, ammonium sulfate was added to the samples, which were then injected into an AKTA FPLC for preparative size exclusion chromatography. Roughly 15 milligrams of protein per liter of LB culture were obtained and purity was determined by SDS-Page electrophoresis. MALDI-TOF spectrometry, performed at the Scientific Instrumentation Services (CIC) of the University of Granada (Granada, Spain), confirmed the molecular mass for each PDZ domain. Extinction coefficients, determined as described, were used to calculate sample concentration. Experimental samples were always prepared by extensive dialysis against 50 mM potassium phosphate buffer at a pH of 7.5 and 4 °C.
(§2) Calorimetric titrations of the PDZ domains with the peptides were undertaken at 25 °C on an ITC-200 titration microcalorimeter (Microcal Inc., Northampton, MA, USA), as previously described. Protein concentrations in the cell were routinely 70 μM and peptides solutions were prepared using the dialysis buffer to have a final concentration of 900 μM. Titrations were all made by injecting 2 μL volumes of ligand solution, with a final number of 19 injections per experiment. As a control and reference, independent experiments were carried out with only buffer in the calorimeter cell with the same ligand solutions to determine the corresponding heat dilution. The dilution isotherms were then subtracted from that obtained for protein titration. The binding stoichiometry, n, the dissociation constant, Kd and the corresponding enthalpy change, ΔH, were determined by fitting the resulting titration isotherm to a model considering a single ligand binding site using ORIGIN 7.0 (OriginLab Corporation, Northampton, MA, USA, 2002).
(§3) We performed ITC experiments at 25 °C between all the selected PDZ domains and peptides. For the sake of comparison, the experiments were all conducted in the same buffer conditions, 50 mM potassium phosphate and pH of 7.5, which presents the advantage of having an insignificant protonation heat, meaning that the experimentally determined enthalpy changes should just account for the net heat of reaction. A table summarizing all interactions is shown in Figure 1, whilst we have just included the successful experiments graphs, both in Figure 2 and in the SI (Figure S1).
On the technique in general: ITC needs no label: the signal is the heat of the interaction.

The target of assay [3] is T2, PSD95-PDZ3 (Homo sapiens, UniProt P78352).
T2 construct: PSD95-PDZ3 (residues 302–415, according to PSD95 numbering); made in house; host or cells: Escherichia coli BL21-DE3
Kind of assay: ITC titration of PSD95-PDZ3 with peptides. The conditions noted are these: for Kd: ITC, 25 °C, 50 mM potassium phosphate pH 7.5, protein 70 μM in cell, peptide 900 μM, single-site model, n 0.8 to 1.1; for interaction or not with PSD95 PDZ3: Figure 1 summary, ITC, and DSC where ITC showed no binding. It is filed as binding. Also noted: key to interaction or not with PSD95 PDZ3: The tick (✓) and the cross (✕) signs mean whether there is interaction or not, respectively, as demonstrated in this study; The tick (✓) and the cross (✕) signs mean whether there is interaction or not, respectively, as demonstrated in this study. The method, then: as §1, §2, §3

For assay [4], the target named is T3, Erbin-PDZ (Homo sapiens, UniProt Q96RT1).
T3 construct: made in house; host or cells: Escherichia coli BL21-DE3
Kind of assay: ITC titration of Erbin-PDZ with peptides. It is filed as binding. More on the design: key to interaction or not with Erbin PDZ: The tick (✓) and the cross (✕) signs mean whether there is interaction or not, respectively, as demonstrated in this study; The tick (✓) and the cross (✕) signs mean whether there is interaction or not, respectively, as demonstrated in this study. As to conditions: for Kd: 50 mM potassium phosphate pH 7.5, protein 70 μM in cell, peptide 900 μM, single-site model, n 0.8 to 1.1; for interaction or not with Erbin PDZ: Figure 1 summary, ITC, and DSC where ITC showed no binding. The method, then:
as §1, §2, §3

Another assay deals with nNOS-PDZ. Kind of assay: DSC of nNOS-PDZ with and without peptides (Tm displacement). It is filed as binding, human. Also noted: key to interaction or not with nNOS PDZ: The tick (✓) and the cross (✕) signs mean whether there is interaction or not, respectively, as demonstrated in this study; The tick (✓) and the cross (✕) signs mean whether there is interaction or not, respectively, as demonstrated in this study. As to conditions: for ΔTm of nNOS-PDZ: DSC, PDZ:peptide 1:3, 50 mM potassium phosphate pH 7.5, nNOS-PDZ alone 55 °C; for interaction or not with nNOS PDZ: Figure 1 summary, no binding by ITC, interaction shown by DSC. The method, then: (§4) Experiments were carried out in a VP-DSC instrument from Microcal INC. as described elsewhere. The buffer conditions were the same as with ITC experiments, 50 mM buffer potassium phosphate at a pH of 7.5. For experiments including the peptides, the final concentration ratio was 1:3 (protein:peptide). Final data were obtained after treatment with ORIGIN 7.0 (OriginLab Corporation, Northampton, MA, USA, 2002).
(§5) The final ratio of PDZ:peptide was always 1:3. DSC is also a calorimetric technique but that allows finding a more subtle binding, weaker than that from ITC [33]. Undoubtedly, ITC presents greater advantages, since it gives an exhaustive characterization of the binding interaction, granting the whole thermodynamics of the system; nevertheless, if the interactions are out of the ITC range, usually when they are weak (Kd values in the mM range), it is not sensitive enough to detect binding. By contrast, DSC can detect weak binding by a displacement of the melting temperature (Tm) due to the stabilization that occurs upon binding. Essentially, when a ligand is bound to the protein, energy is needed to decouple the interacting pair before protein denaturalization. In this way, the Tm is increased and the ΔTm is proportional to the interaction energy.

Assay [5] concerns the target T2, PSD95-PDZ3. As to conditions: cited from earlier work. An excerpt: Unfortunately, the calorimetric traces for nNOS-PDZ are highly irreversible, which prevents an analysis that would potentially yield a Kd value. Instead, we can approximately estimate a Kd range based on previous cases in PDZ binding. We have taken as a reference two PDZ-peptide interactions. Firstly, the binding of PSD95-PDZ3 with the peptide KKETAV formerly described by us. We had previously performed both ITC and DSC with PSD95-PDZ3 and KKETAV. The concentrations ...

Assay [6] has as its target T1, PSD95-PDZ2. Kind of assay: DSC of PSD95-PDZ2 with and without peptides. It is filed as binding. As to conditions: PDZ:peptide 1:3, 50 mM potassium phosphate pH 7.5 (Figure S2). The method, then:
as §4, §5

As a reminder, the Kd is the constant that tells how readily two partners part at equilibrium.

T1 sequence (P78352 155-249): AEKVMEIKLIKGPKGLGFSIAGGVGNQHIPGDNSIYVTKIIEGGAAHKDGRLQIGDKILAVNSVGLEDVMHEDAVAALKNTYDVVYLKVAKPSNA
T2 sequence (P78352 302-415): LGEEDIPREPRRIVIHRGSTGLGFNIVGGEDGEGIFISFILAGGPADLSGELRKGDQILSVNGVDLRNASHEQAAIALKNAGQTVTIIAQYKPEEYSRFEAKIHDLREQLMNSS
T3 sequence (Q96RT1 1321-1410 limits assumed): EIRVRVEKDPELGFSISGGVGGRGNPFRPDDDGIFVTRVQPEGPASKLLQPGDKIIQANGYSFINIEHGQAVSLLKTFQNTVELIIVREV

Take “EYLGLDVPV [ERBB2 C-terminal tail comprising 9 residues, literature value]”: the Kd at Erbin-PDZ [1] is approximately 50 µM.
As to FRETEV [HTLV1 Tax], the Kd on PSD95-PDZ2 [2] is 1.5 ± 0.1 µM; on PSD95-PDZ3 [3], 3.8 ± 0.2 µM; on Erbin-PDZ [4] (ITC, 25 °C), 7.8 ± 0.9 µM.
Take “GLDVPV (UniProt P04626 1250-1255, looked up, fragment) [ERBB2, six-residue C-terminal peptide of host receptor tyrosine kinase ERBB2, class II PDZ ligand]”: in the assay with nNOS-PDZ, the “ΔTm of nNOS-PDZ” value turned out to be 2 °C and the “interaction or not with nNOS PDZ” value is “✓”. In the assay with PSD95-PDZ2 [2], the “interaction or not with PSD95 PDZ2” value is on record as “✕”. Besides, the “interaction or not with PSD95 PDZ3” value in the assay with PSD95-PDZ3 [3] was “✕”. Moreover, in the assay with Erbin-PDZ [4], the “interaction or not with Erbin PDZ” value is “✕”. The “binding to Erbin-PDZ by ITC” value with Erbin-PDZ [4] (ITC, 25 °C, 50 mM potassium phosphate pH 7.5) is “lack of binding”.
IAESSV [HTLV3 Tax]: the Kd was determined as 20 ± 3.8 µM at PSD95-PDZ2 [2]; 43 ± 10 µM on PSD95-PDZ3 [3]; 23 ± 9 µM on Erbin-PDZ [4] (ITC, 25 °C).
Consider KIATLV [AdV E4 ORF1], for which binding on PSD95-PDZ2 [2] was put at a Kd of 11.5 ± 0.5 µM.
Regarding KKETAV, the “ΔTm of PSD95-PDZ3” value at PSD95-PDZ3 [5] (DSC, PDZ:peptide 1:3) is “about 9 °C”. Besides, in the assay with PSD95-PDZ3 [5] (ITC, same concentrations as this study), the Kd is 1.5 µM.
Consider “LLDEIAV [CAPON, C-terminus of CAPON, cytoplasmic protein; class II peptide, cognate nNOS partner]”, for which, in the assay with nNOS-PDZ, the “ΔTm of nNOS-PDZ” value turned out to be 3 °C and the “interaction or not with nNOS PDZ” value is recorded as “✓”. The “interaction or not with PSD95 PDZ2” value on PSD95-PDZ2 [2] was “✕”. Also, the “interaction or not with PSD95 PDZ3” value at PSD95-PDZ3 [3] is “✕”. On Erbin-PDZ [4], the “interaction or not with Erbin PDZ” value is given as “✕”.
For the substance TGWETWV [Erbin PDZ binder], the dissociation constant Kd at PSD95-PDZ2 [2] is 5.7 ± 0.2 µM; at Erbin-PDZ [4] (ITC, 25 °C), 0.24 ± 0.08 µM. The “ΔTm of PSD95-PDZ2” value at PSD95-PDZ2 [6] was “around 6 °C”.
Regarding “VVKVDSV [MelR, C-terminal region of a melatonin receptor]”, in the assay on nNOS-PDZ, the “ΔTm of nNOS-PDZ” value was found to be 3 °C and the “interaction or not with nNOS PDZ” value was “✓”. Moreover, the “interaction or not with PSD95 PDZ2” value at PSD95-PDZ2 [2] was “✕”. Further, the “interaction or not with PSD95 PDZ3” value at PSD95-PDZ3 [3] is given as “✕”. Besides, on Erbin-PDZ [4], the “interaction or not with Erbin PDZ” value is recorded as “✕”.
